Measurements from patent publication US10227350B2 (Gilead Sciences, Inc., priority 2016, dated 2019).
pIC50: −log10 of the molar value.

molecular target: PI3Kβ (Homo sapiens (Human), UniProt P42338); assay: TR-FRET enzymatic activity assay, PI3Kβ; type: biochemical; settings: 2× Km ATP, 2 μM PIP2, 30 minutes at 25° C., read-out: IC50-PIP-Beta
Description: The compounds of formula (I) were characterized for their enzymatic activity against the PI3K isoforms. The activities were measured using a time-resolved fluorescence resonance energy transfer (TR-FRET) assay. TR-FRET monitored the formation of 3,4,5-inositol triphosphate molecule that competed with fluorescently labeled PIPS for binding to the GRP-1 pleckstrin homology domain protein.
Class I PI3K isoforms were expressed and purified as heterodimeric recombinant proteins. All assay reagents and buffers for the TR-FRET assay were purchased from Millipore. […] The compounds were added to the assay solution and incubated for 30 minutes at 25° C.

Chain of PI3Kβ (P42338 whole entry, the tested form may be a part, canonical isoform): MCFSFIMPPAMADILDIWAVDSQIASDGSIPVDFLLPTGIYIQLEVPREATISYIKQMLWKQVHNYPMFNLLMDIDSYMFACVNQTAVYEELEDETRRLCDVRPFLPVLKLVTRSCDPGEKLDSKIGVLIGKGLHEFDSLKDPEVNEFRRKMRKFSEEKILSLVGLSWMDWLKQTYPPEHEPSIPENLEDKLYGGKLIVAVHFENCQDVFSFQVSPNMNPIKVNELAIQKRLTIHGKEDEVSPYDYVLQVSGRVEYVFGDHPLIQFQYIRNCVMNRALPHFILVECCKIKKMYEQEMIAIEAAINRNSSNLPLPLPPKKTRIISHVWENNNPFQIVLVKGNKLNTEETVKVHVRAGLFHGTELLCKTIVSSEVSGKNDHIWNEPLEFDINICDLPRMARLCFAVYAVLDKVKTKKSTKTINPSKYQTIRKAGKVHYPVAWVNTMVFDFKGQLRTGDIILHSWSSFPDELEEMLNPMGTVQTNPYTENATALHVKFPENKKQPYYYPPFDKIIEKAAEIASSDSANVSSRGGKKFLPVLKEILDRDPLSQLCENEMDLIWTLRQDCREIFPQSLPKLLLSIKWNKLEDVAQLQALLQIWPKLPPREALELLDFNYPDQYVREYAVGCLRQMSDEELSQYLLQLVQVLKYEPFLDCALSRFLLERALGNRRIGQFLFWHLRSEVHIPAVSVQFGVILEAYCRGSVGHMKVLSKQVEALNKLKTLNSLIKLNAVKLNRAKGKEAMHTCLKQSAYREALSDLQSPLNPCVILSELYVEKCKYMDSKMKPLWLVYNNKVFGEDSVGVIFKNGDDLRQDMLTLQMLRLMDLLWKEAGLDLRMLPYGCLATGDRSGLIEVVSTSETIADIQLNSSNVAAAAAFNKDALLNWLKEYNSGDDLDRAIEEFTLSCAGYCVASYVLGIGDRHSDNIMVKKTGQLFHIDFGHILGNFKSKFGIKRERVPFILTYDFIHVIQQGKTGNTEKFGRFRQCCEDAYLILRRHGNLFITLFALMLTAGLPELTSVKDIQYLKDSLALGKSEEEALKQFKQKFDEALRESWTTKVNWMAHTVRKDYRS
Chain of PI3Kβ (P27986 whole entry partner, the tested form may be a part, canonical isoform): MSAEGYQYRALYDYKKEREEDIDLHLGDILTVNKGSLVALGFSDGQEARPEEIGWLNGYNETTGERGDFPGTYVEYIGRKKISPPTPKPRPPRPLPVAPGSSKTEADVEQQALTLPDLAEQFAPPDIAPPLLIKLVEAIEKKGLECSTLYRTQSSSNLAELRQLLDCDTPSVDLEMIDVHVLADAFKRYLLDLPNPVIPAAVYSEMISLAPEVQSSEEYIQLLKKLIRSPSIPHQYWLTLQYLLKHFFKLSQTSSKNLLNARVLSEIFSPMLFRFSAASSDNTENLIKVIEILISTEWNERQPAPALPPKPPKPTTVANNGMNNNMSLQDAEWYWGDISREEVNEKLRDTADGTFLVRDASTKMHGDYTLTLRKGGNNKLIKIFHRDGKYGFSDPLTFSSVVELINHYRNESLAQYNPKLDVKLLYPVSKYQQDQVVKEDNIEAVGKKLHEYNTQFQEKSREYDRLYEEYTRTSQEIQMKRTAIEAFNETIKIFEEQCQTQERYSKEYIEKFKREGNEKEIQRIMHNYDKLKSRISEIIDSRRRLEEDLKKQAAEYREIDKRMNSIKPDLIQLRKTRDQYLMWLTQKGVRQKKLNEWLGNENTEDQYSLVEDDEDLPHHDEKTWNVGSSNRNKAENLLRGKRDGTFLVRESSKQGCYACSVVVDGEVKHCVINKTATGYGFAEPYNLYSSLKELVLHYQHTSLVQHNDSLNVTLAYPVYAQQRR

pIC50 | Compound
8.70 | Cc1nc2c(-c3nnc[nH]3)cc(-c3ccnc(C#N)c3)cc2n1-c1ccnc2cccc(F)c12 (single isomer, unassigned) [Example 131, 4-(1-(5-fluoroquinolin-4-yl)-2-methyl-4-(4H-1,2,4-triazol-3-yl)-1H-benzo[d]imidazol-6-yl)picolinonitrile]
7.27 | Cc1nc2c(-c3nnc[nH]3)cc(-c3ccnc(C#N)c3)cc2n1-c1ccnc2cccc(F)c12 (single isomer, unassigned) [Example 132, 4-(1-(5-fluoroquinolin-4-yl)-2-methyl-4-(4H-1,2,4-triazol-3-yl)-1H-benzo[d]imidazol-6-yl)picolinonitrile]
8.70 | Cc1nc2c(-c3nnc[nH]3)cc(-c3ccnc(F)c3)cc2n1-c1ccnc2c(F)ccc(F)c12 (single isomer, unassigned) [Example 133, 5,8-difluoro-4-(6-(2-fluoropyridin-4-yl)-2-methyl-4-(4H-1,2,4-triazol-3-yl)-1H-benzo[d]imidazol-1-yl)quinoline]
6.40 | Cc1nc2c(-c3nnc[nH]3)cc(-c3ccnc(F)c3)cc2n1-c1ccnc2c(F)ccc(F)c12 (single isomer, unassigned) [Example 134, 5,8-difluoro-4-(6-(2-fluoropyridin-4-yl)-2-methyl-4-(4H-1,2,4-triazol-3-yl)-1H-benzo[d]imidazol-1-yl)quinoline]
8.40 | Cc1nc2c(-c3nnc[nH]3)cc(-c3ccnc(C#N)c3)cc2n1-c1ccnc2c(Cl)ccc(F)c12 (single isomer, unassigned) [Example 135, 4-(1-(8-chloro-5-fluoroquinolin-4-yl)-2-methyl-4-(4H-1,2,4-triazol-3-yl)-1H-benzo[d]imidazol-6-yl)picolinonitrile]
6.66 | Cc1nc2c(-c3nnc[nH]3)cc(-c3ccnc(C#N)c3)cc2n1-c1ccnc2c(Cl)ccc(F)c12 (single isomer, unassigned) [Example 136, 4-(1-(8-chloro-5-fluoroquinolin-4-yl)-2-methyl-4-(4H-1,2,4-triazol-3-yl)-1H-benzo[d]imidazol-6-yl)picolinonitrile]
8.00 | Cc1nc2c(-c3nnc[nH]3)cc(-c3ccncc3F)cc2n1-c1ccnc2c(Cl)cccc12 (single isomer, unassigned) [Example 137, 8-chloro-4-(6-(3-fluoropyridin-4-yl)-2-methyl-4-(4H-1,2,4-triazol-3-yl)-1H-benzo[d]imidazol-1-yl)quinoline]
7.00 | Cc1nc2c(-c3nnc[nH]3)cc(-c3ccncc3F)cc2n1-c1ccnc2c(Cl)cccc12 (single isomer, unassigned) [Example 138, 8-chloro-4-(6-(3-fluoropyridin-4-yl)-2-methyl-4-(4H-1,2,4-triazol-3-yl)-1H-benzo[d]imidazol-1-yl)quinoline]
6.27 | Cc1nc2c(-c3nnc[nH]3)cc(-c3ccncc3)cc2n1-c1ccnc2c(F)ccc(F)c12 (single isomer, unassigned) [Example 140, 5,8-difluoro-4-(2-methyl-6-(pyridin-4-yl)-4-(4H-1,2,4-triazol-3-yl)-1H-benzo[d]imidazol-1-yl)quinoline]
6.92 | Cc1cc(-c2cc(-c3nnc[nH]3)c3nc(C)n(-c4ccnc5c(F)ccc(F)c45)c3c2)ccn1 (single isomer, unassigned) [Example 141, 5,8-difluoro-4-(2-methyl-6-(2-methylpyridin-4-yl)-4-(4H-1,2,4-triazol-3-yl)-1H-benzo[d]imidazol-1-yl)quinoline]
7.96 | Cc1cc(-c2cc(-c3nnc[nH]3)c3nc(C)n(-c4ccnc5c(F)ccc(F)c45)c3c2)ccn1 (single isomer, unassigned) [Example 142, 5,8-difluoro-4-(2-methyl-6-(2-methylpyridin-4-yl)-4-(4H-1,2,4-triazol-3-yl)-1H-benzo[d]imidazol-1-yl)quinoline]
7.47 | Cc1nc2c(C(=O)O)cc(-c3ccncc3)cc2n1-c1ccnc2c(Cl)cccc12 [Example 1]
7.89 | Cc1nc2c(C(=O)O)cc(-c3ccnc(N)n3)cc2n1-c1ccnc2c(Cl)cccc12 [Example 2]
5.55 | Cc1nc2c(C(=O)O)cc(-c3ncnc4[nH]cnc34)cc2n1-c1ccnc2c(Cl)cccc12 [Example 3]
7.70 | Cc1nc2c(C(=O)O)cc(-c3ccnc(N)c3F)cc2n1-c1ccnc2c(F)ccc(F)c12 [Example 4, 6-(2-amino-3-fluoropyridin-4-yl)-1-(5,8-difluoroquinolin-4-yl)-2-methyl-1H-benzo[d]imidazole-4-carboxylic acid]
7.07 | NC(=O)c1cc(-c2ccncc2)cc2c1ncn2-c1ccnc2c(Cl)cccc12 [Example 5, 1-(8-chloroquinolin-4-yl)-6-pyridin-4-ylbenzimidazole-4-carboxamide]
7.44 | Cc1nc2c(C(N)=O)cc(-c3ccncc3)cc2n1-c1ccnc2c(F)ccc(F)c12 [Example 6, 1-(5,8-difluoroquinolin-4-yl)-2-methyl-6-pyridin-4-ylbenzimidazole-4-carboxamide]
7.80 | Cc1cc(-n2c(C)nc3c(C(N)=O)cc(-c4ccncc4)cc32)c2cccc(Cl)c2n1 [Example 7, 1-(8-chloro-2-methylquinolin-4-yl)-2-methyl-6-pyridin-4-ylbenzimidazole-4-carboxamide]

pIC50 | Compound
7.09 | Cc1nc2c(C(N)=O)cc(-c3ccncc3)cc2n1-c1ccnc2cccc(F)c12 [Example 8, 1-(5-fluoroquinolin-4-yl)-2-methyl-6-pyridin-4-ylbenzimidazole-4-carboxamide]
6.02 | Cc1cccc2nccc(-n3c(C)nc4c(C(N)=O)cc(-c5ccncc5)cc43)c12 [Example 9, 2-methyl-1-(5-methylquinolin-4-yl)-6-pyridin-4-ylbenzimidazole-4-carboxamide]
5.80 | Cc1cc(-n2c(C)nc3c(C(N)=O)cc(-c4ccncc4)cc32)c2ccccc2n1 [Example 10, 2-methyl-1-(2-methylquinolin-4-yl)-6-pyridin-4-ylbenzimidazole-4-carboxamide]
8.52 | Cc1nc2c(C(N)=O)cc(-c3ccncc3)cc2n1-c1ccnc2c(Cl)ccc(F)c12 [Example 11, 1-(8-chloro-5-fluoroquinolin-4-yl)-2-methyl-6-pyridin-4-ylbenzimidazole-4-carboxamide]
6.47 | NC(=O)c1cc(-c2ccncc2)cc2c1nc(C1COC1)n2-c1ccnc2c(Cl)cccc12 [Example 12, 1-(8-chloroquinolin-4-yl)-2-(oxetan-3-yl)-6-pyridin-4-ylbenzimidazole-4-carboxamide]
7.82 | Cc1nc2c(C(N)=O)cc(-c3ccncc3)cc2n1-c1ccnc2c(Cl)cccc12 [Example 13, 1-(8-chloroquinolin-4-yl)-2-methyl-6-pyridin-4-ylbenzimidazole-4-carboxamide]
7.21 | Cc1nc2c(C(N)=O)cc(-c3ccncc3F)cc2n1-c1ccnc2c(Cl)cccc12 [Example 14, 1-(8-chloroquinolin-4-yl)-6-(3-fluoropyridin-4-yl)-2-methylbenzimidazole-4-carboxamide]
6.82 | Cc1cc(-c2cc(C(N)=O)c3nc(C)n(-c4ccnc5c(Cl)cccc45)c3c2)ccn1 [Example 15, 1-(8-chloroquinolin-4-yl)-2-methyl-6-(2-methylpyridin-4-yl)benzimidazole-4-carboxamide]
7.29 | Cc1nc2c(C(N)=O)cc(-c3ccnc(C#N)c3)cc2n1-c1ccnc2c(F)ccc(F)c12 [Example 16, 6-(2-cyanopyridin-4-yl)-1-(5,8-difluoroquinolin-4-yl)-2-methylbenzimidazole-4-carboxamide]
7.64 | Cc1nc2c(C(N)=O)cc(-c3ccnc(N)c3)cc2n1-c1ccnc2c(Cl)ccc(F)c12 [Example 18, 6-(2-aminopyridin-4-yl)-1-(8-chloro-5-fluoroquinolin-4-yl)-2-methylbenzimidazole-4-carboxamide]
7.92 | Cc1nc2c(C(N)=O)cc(-c3ccnc(N)n3)cc2n1-c1ccnc2c(Cl)cccc12 [Example 19, 6-(2-aminopyrimidin-4-yl)-1-(8-chloroquinolin-4-yl)-2-methylbenzimidazole-4-carboxamide]
5.96 | Cc1nc2c(C(N)=O)cc(-c3ncnc4[nH]cnc34)cc2n1-c1ccnc2c(Cl)cccc12 [Example 20, 1-(8-chloroquinolin-4-yl)-2-methyl-6-(9H-purin-6-yl)benzimidazole-4-carboxamide]
5.89 | Cc1nc2c(C(N)=O)cc(-c3cc(N)ncn3)cc2n1-c1ccnc2c(Cl)cccc12 [Example 21, 6-(6-aminopyrimidin-4-yl)-1-(8-chloroquinolin-4-yl)-2-methylbenzimidazole-4-carboxamide]
5.96 | Cc1nc2c(C(N)=O)cc(-c3cc(N)nc(N)n3)cc2n1-c1ccnc2c(Cl)cccc12 [Example 22, 1-(8-chloroquinolin-4-yl)-6-(2,6-diaminopyrimidin-4-yl)-2-methylbenzimidazole-4-carboxamide]
7.02 | Cc1nc2c(C(N)=O)cc(-c3ccnc(N)c3)cc2n1-c1ccnc2c(Cl)cccc12 [Example 23, 6-(2-aminopyridin-4-yl)-1-(8-chloroquinolin-4-yl)-2-methyl-1H-benzo[d]imidazole-4-carboxamide]
8.22 | NC(=O)c1cc(-c2ccnc(N)c2F)cc2c1nc(C1CC1)n2-c1ccnc2c(Cl)ccc(F)c12 [Example 25]
7.89 | Cc1nc2c(C(N)=O)cc(-c3ccnc(N)c3F)cc2n1-c1ccnc2c(F)ccc(F)c12 [Example 26, 6-(2-amino-3-fluoropyridin-4-yl)-1-(5,8-difluoroquinolin-4-yl)-2-methyl-1H-benzo[d]imidazole-4-carboxamide]
8.30 | Clc1cccc2c(-n3cnc4c(-c5ncn[nH]5)cc(-c5ccncc5)cc43)ccnc12 [Example 27, 8-chloro-4-[6-pyridin-4-yl-4-(1H-1,2,4-triazol-5-yl)benzimidazol-1-yl]quinoline]
